For 36 molecules, GI50 and TGI results are on record in PubChem BioAssay (NCI).

“And” between values parts separate entries of the source, which are not always exact repeats. Equal entries are not always repeated.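 Step 1: Grow cells in 96-well plates. Step 2: Expose to compound for 48 hours at 5 concentrations. Step 3: Interpolate endpoints linearly; if unreached, use highest concentration. GI50 marks 50% less growth. TGI marks complete inhibition of growth.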

This assay concerns MDA-MB-468 breast. Kind of assay: NCI tumour cell line growth inhibition, 48 h.

For the molecule `COc1cc(C2c3cc4c(cc3OC(NNC(N)=O)C2C)OCO4)cc(OC)c1O` (configuration not stated), the GI50 was 7.5 µM and the TGI is over 100 µM.

With `Cc1c2c(nn1C)CSCc1cc(n(C)n1)CSc1cc(c3ccccc3c1)OCCCc1c(C(=O)O)n(C)c3c-2c(Cl)ccc13`, the GI50 is 0.185 µM and the TGI amounted to 0.487 µM.

As to `O=C(Nc1ccc(Cl)cc1)Nc1ccc(Nc2nncc3ccccc23)cc1`, the GI50 was 2.57 µM and the TGI amounted to 9.47 µM.

Take `COc1cc(C(=O)NC2CCN(C)CC2)c(F)cc1Nc1ncc2c(n1)N(C1CCCC1)CC(F)(F)C(=O)N2C`: the GI50 is under 0.01 µM and the TGI amounted to 0.633 µM.

Consider `CCCCN(CCCC)c1ccc(C(=N)c2ccc(N(CCCC)CCCC)cc2)cc1`, for which the GI50 is 0.189 µM and the TGI stood at 0.748 µM.

As for `Cc1ccc(S(=O)(=O)Nc2cccc3[nH]c(C(F)(F)F)nc23)cc1`, the GI50 was 0.536 µM and the TGI was 26.1 µM.

As for `NC(=O)c1c(NC(=O)c2ccc3c(c2)OCO3)sc2c1CCC(=O)C2`, the GI50 was 1.96 µM and the TGI was found to be 4.43 µM.

For the molecule `Nc1[nH]nc2nc(-c3cccs3)cc(C(F)(F)F)c12`, the GI50 was over 17.1 µM and the TGI is over 25 µM.

As to `COc1ccc(C(=O)c2cc3c(N)c(C(=O)Nc4cccc5ccccc45)sc3nc2C)cc1`, the GI50 was 0.22 µM and the TGI was over 50 µM.

`COc1ccc(/C=C2\CCCC3=C2NC(N)=NC3c2ccc(OC)c(OC)c2)cc1OC` (configuration not stated): the GI50 was 0.921 µM and the TGI was found to be 8.84 µM.

With `Cc1ccc(CNc2c3ccccc3nc3cc(NC(=O)CCN4CCCC4)ccc23)cc1`, the GI50 was 0.449 µM and the TGI was 1.63 µM.

As to `CC(C)(O)CC(=O)NCCn1ccc2ncnc(Nc3ccc(Oc4cccc(C(F)(F)F)c4)c(Cl)c3)c21`, the GI50 was 0.272 µM and the TGI was 4.06 µM.

`O=[N+]([O-])c1cccc([As]=[As]c2cccc([N+](=O)[O-])c2)c1` (configuration not stated): the GI50 was 0.0529 µM and the TGI was 0.194 µM.

As for `O=C(NC[C@H](O)CO)c1ccncc1Nc1ccc(I)cc1F`, the GI50 is > 10 µM and 12.1 µM; the TGI is over 66 µM.

With `NC(=S)N/N=C/c1ncccc1N`, the GI50 is 1.89 µM and the TGI is 10.2 µM.

Turning to `CC[C@H](CO)Nc1nc(NCc2ccccc2)n2ncc(C(C)C)c2n1`, the GI50 is 1.88 µM and the TGI is 5.19 µM.

Take `CN1CC[C@@H](c2c(O)cc(O)c3c(=O)cc(-c4ccccc4Cl)oc23)[C@@H]1CO`: the GI50 is 0.251 µM and the TGI was 0.772 µM.

Consider `Cn1cc(C2=C(c3cccc(OCC(O)CO)c3)C(=O)NC2=O)c2ccccc21` (configuration not stated), for which the GI50 was over 25 µM and the TGI is over 25 µM.

For the molecule `CS(=O)(=O)c1nccc(-c2c(-c3ccc(F)c(OCc4ccc(F)cc4)c3)nc3sccn23)n1`, the GI50 was 2.43 µM and the TGI stood at 7.03 µM.

`C1CN(SSN2CCOCC2)CCO1`: the GI50 is over 100 µM and the TGI is over 100 µM.

Turning to `O=C(Nc1cccc(NC(=O)Nc2cc(C(F)(F)F)ccc2Cl)c1)Nc1cc(C(F)(F)F)ccc1Cl`, the GI50 was 1.1 µM and the TGI was found to be 7.24 µM.

Turning to `O=C(Nc1ccc(Cl)c(Cl)c1)O/N=C\c1c(Cl)ccc([N+](=O)[O-])c1Cl`, the GI50 is 1.08 µM and the TGI was determined as 2.72 µM.

For `COC(=O)c1cc2ccc(OC(C)=O)c(OC(C)=O)c2cn1`, the GI50 was 16.1 µM and the TGI was 33.5 µM.

Turning to `O=C(/C=C/c1ccc([N+](=O)[O-])cc1)c1ccc2c3c(cccc13)CC2`, the GI50 is 2.98 µM and the TGI is 19.3 µM.

Regarding `CCOc1ccccc1N=Nc1c(C)[nH]n(-c2nc(-c3ccccc3)cs2)c1=O`, the GI50 is 8.49 µM and the TGI was over 100 µM.

Consider `CCOc1cc2ncc(C#N)c(Nc3ccc(OCc4ccccn4)c(Cl)c3)c2cc1NC(=O)/C=C/CN(C)C`, for which the GI50 was < 0.01 µM and 0.00501 µM; the TGI is 0.0415 µM and 0.0479 µM.

Take `O=C(COc1ccc(/C=C2\Oc3ccccc3C2=O)cc1)Nc1nc2c(s1)CCCC2`: the GI50 is 0.309 µM and the TGI was 1.86 µM.

Regarding `COc1cccc(-n2ncc3c(N/N=C/c4ccncc4)ncnc32)c1`, the GI50 is 5.15 µM and the TGI is over 25 µM.

For the molecule `CC1(C)[C@@H](OC(N)=O)[C@H]2O[C@H]2[C@]2(CO)[C@H]3CC[C@]4(C)[C@@H](c5ccc(=O)oc5)[C@@H](Cl)C[C@]4(O)C3=CC[C@@H]12`, the GI50 is 0.021 µM and the TGI was found to be 0.0965 µM.

As for `CN(C)c1ccc2c(c1)OC(N)=C(C#N)C2c1ccc2c(c1)CCO2` (configuration not stated), the GI50 is 0.117 µM and the TGI was 47.7 µM.

On to `Nc1nc(Nc2ccc(C3CCC(N4CCOCC4)CC3)cc2)nn1-c1ccccn1` (configuration not stated), for which the GI50 is 11.2 µM and the TGI is over 100 µM.

As to `CN(C)c1ccc2nc3ccc(=[N+](C)C)cc-3sc2c1`, the GI50 was 0.233 µM and 0.469 µM; the TGI is 1.01 µM and 3.63 µM.

On to `CCN(CC)Cc1ccc(Nc2nccc(-c3cnn4ncccc34)n2)cc1`, for which the GI50 is 0.035 µM and the TGI amounted to 0.0975 µM.

Take `COc1ccc(C(=O)/C=C/c2c(Cl)c3c(c(OC)c2Cl)OCC(=O)N3)cc1`: the GI50 is 1.69 µM and the TGI was 3.7 µM.

As for `Cc1cc(N2CCCC2)nc(N(CCNc2ccnc3cc(Cl)ccc23)Cc2ccco2)n1`, the GI50 was 1.96 µM and the TGI was 6.67 µM.

In the case of `O=c1nc2oc3ccc4ccccc4c3cc-2s1`, the GI50 is 0.551 µM and the TGI was found to be 19.5 µM.
